Data published in patent US20220273659A1, “HETEROCYCLIC COMPOUNDS AS KINASE INHIBITORS” (NUVATION BIO INC., priority 2019, published 2022).

Legend:
[1] = target: T1, CDK4 (Homo sapiens, UniProt P11802); test: In vitro kinase inhibition IC50, luminescence (ADP Glo), retinoblastoma substrate; format: biochemical; conditions: read-out: CDK4/D1 IC50
T1 construct: purchased Invitrogen PR8064A
Description: (§1) IC50 values of compounds against CDK4 and CDK6 were determined by luminescence using retinoblastoma as substrate. Kinase assays were performed in kinase buffer (#PV6135, Invitrogen Life Technologies, Grand Island, N.Y.) where total reaction volume was […] in 96-well half area white plates (#3693, Costar). One microliter of 25×test compounds at specific concentrations (e.g., final concentration range: 0.1 nM-200 nM) was mixed with 10 μL of 2.5×kinase (5 nM, CDK4 #PR8064A and CDK6 #PR8422B, Invitrogen) solution and 14 μL of 4× mixed solution with retinoblastoma (1 μM, #12-439, EMD Millipore, Hayward, Calif.) and ATP (25 μM, #V7038, Promega, Madison, Wis.). The plates were covered and incubated for 2H at room temperature. At the end of incubation, 25 μL of stop solution—ADP Glo reagent (#V7002, Promega) was added. After incubation for 45 min at room temperature, 50 μL of detection reagent (##V7002, Promega) was added. Readings were taken at 15 min and 45 min incubation after detection reagent was added in a Synergy Neo Plate reader (BioTek, Winooski, Vt.) at single excitation of 340 nm and Dual emission at 495 nm and 520 nm respectively. The following equations were used in the CDK4 and CDK6 assay data analysis. Percent inhibition (100-% activity) was fitted to the “four-parameter logistic model” in XLfit for determination of IC50 values.
(§2) Percent conversion of enzyme=100−{(RLUNo Drug−No enzyme*100)/RLUNo drug+Enzyme} Equation 1:
(§3) Percent conversion at each data point=100−{(RLUAverage(Drug+enzyme)*100)!RLUNo drug+Enzyme} Equation 2:
(§4) Percent Inhibition=100*(% Conversioneach data point/% ConversionEnzyme) Equation 3: […]

[2] = target: T2, CDK6 (Homo sapiens, UniProt Q00534); test: as above; format: biochemical; conditions: read-out: CDK6/D1 IC50
T2 construct: purchased Invitrogen PR8422B
T2 sequence (Q00534 whole entry): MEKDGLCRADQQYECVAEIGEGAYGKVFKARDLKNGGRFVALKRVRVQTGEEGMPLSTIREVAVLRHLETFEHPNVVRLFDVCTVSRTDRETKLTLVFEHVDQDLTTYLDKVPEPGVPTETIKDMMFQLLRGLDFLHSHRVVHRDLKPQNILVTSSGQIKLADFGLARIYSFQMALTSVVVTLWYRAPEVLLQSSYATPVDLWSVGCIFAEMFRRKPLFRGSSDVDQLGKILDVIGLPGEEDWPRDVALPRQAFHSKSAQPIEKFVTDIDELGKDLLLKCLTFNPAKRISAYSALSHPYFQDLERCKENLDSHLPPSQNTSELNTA
T2 sequence (P24385 whole entry partner): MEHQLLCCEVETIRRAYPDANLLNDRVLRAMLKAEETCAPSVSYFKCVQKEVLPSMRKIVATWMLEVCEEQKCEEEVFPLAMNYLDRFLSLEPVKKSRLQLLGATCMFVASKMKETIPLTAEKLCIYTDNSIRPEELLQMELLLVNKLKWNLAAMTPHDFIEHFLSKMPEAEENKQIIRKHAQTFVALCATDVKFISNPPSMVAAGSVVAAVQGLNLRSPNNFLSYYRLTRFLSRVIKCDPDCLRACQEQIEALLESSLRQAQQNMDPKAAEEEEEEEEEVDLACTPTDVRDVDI
Description: as §1, §2, §3, §4

[3] = target: T3, FMS kinase (Homo sapiens, UniProt P07333); test: LanthaScreen Eu Kinase Binding Assay (ATP, fluorescent-PolyGT substrate); format: biochemical
T3 construct: purchased Invitrogen (Life Technologies)
T3 sequence (P07333 20-972): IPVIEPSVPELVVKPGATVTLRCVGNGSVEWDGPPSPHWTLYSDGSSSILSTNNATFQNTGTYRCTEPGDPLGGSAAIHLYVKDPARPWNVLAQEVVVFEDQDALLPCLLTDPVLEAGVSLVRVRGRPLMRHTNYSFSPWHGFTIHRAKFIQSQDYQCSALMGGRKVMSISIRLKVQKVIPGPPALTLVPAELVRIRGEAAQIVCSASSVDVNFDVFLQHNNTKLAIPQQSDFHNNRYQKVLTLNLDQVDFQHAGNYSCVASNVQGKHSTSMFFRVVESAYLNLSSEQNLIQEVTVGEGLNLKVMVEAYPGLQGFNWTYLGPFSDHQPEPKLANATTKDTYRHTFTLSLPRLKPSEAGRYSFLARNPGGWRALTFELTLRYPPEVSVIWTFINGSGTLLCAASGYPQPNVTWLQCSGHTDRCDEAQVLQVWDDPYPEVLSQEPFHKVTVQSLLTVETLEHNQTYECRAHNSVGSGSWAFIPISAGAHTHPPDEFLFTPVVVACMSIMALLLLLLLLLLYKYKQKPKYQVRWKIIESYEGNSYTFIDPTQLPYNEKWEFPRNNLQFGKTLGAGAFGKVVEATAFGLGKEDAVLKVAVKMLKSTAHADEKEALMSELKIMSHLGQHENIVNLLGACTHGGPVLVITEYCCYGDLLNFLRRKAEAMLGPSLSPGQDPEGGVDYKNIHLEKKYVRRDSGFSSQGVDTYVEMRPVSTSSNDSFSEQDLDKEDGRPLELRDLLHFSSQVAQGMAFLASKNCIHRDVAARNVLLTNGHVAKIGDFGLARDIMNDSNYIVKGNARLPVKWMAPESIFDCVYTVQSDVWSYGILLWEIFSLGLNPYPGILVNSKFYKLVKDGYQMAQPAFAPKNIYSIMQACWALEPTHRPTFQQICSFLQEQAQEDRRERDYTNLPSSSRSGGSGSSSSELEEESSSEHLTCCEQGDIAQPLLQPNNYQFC
Description: IC50 values of compounds against FMS kinase were determined by LanthaScreen™ Eu Kinase Binding Assay at Invitrogen (Life Technologies Grand Island, N.Y.) where total reaction volume was 10 μL in low-volume 384-well plates (#4511, Corning). Serially diluted compounds (3-fold) were incubated with kinase (1.25 nM) for 10 min, following which a mixture of ATP (10 μM) (#A1852, Sigma, St-Louis, Mo.) and fluorescent-PolyGT substrate (200 nM) (#PV3610, Invitrogen, Life Technologies Grand Island, N.Y.) was added and incubated in dark at room temperature for 1H. After 1H, 10 μL stop solution containing Terbium labeled antibody (4 nM) (#PV3529, Invitrogen, Life Technologies Grand Island, N.Y.) and EDTA (#E5134, Sigma, St-Louis, Mo.) (20 mM) in TR-FRET dilution buffer (#PV3574, Invitrogen, Life Technologies Grand Island, N.Y.) was added. Readings were taken in a Synergy Neo Plate reader (BioTek, Winooski) at single excitation of 340 nm and Dual emission at 495 nm and 520 nm respectively.
The following equations were used for LanthaScreen Eu Kinase Binding Assay Data Analysis. Percent inhibition (100-% activity) was fitted to the “four-parameter logistic model” in XLfit for determination of IC50 values.

[4] = test system: MCF-7 breast adenocarcinoma cells; test: Cancer cell proliferation assay, single agent (cell viability); format: cell-based; conditions: Homo sapiens, MCF7, Table 4; Rb positive; treatment 144 Hr with medium change at 72 Hr; Cell Titer-Glo or resazurin
Description: (§5) The effects of test compounds were studied in three breast cancer cell lines of different subtype. The cancer cells (Table 3) were harvested during the logarithmic growth period and counted. Cell concentrations were adjusted to the appropriate number with respective medium and 90 μL cell suspensions were added to 96-well plates. After cells were seeded, the plates were shaken gently to distribute cells evenly and incubated at 37° C., 5% CO2 on day 1.
(§6) Cells were treated with test compounds at 7 to 9 concentrations within a desired concentration range (e.g. 1.1 nM-10 μM) on day 2 by series diluting the test compound stock solution (10 mM in DMSO) with culture medium. Treatment duration was 24 Hr for BT-549 cells and 144 Hr (with a medium change at 72 Hr) for MCF-7 and DU4475 cells. Cell viability was assessed by Cell Titer-Glo® as recommended by Promega (Cat. No.: G7572), or by resazurin assay (Sigma Aldrich, Cat. No.: R7017) post treatment.
(§7) Cell viability data were plotted using GraphPad Prism (GraphPad Software, Inc., San Diego, Calif.). In addition, a nonlinear regression model with a sigmoidal dose response and variable slope within GraphPad Prism was used to calculate the IC50 value of individual test compounds.

[5] = target: T4, PI3Kδ kinase (Homo sapiens, UniProt O00329); test: PI3Kδ kinase assay (ADP-Glo, Reaction Biology); format: biochemical
T4 construct: purchased Reaction Biology Corporation (assay service)
T4 sequence (O00329 whole entry): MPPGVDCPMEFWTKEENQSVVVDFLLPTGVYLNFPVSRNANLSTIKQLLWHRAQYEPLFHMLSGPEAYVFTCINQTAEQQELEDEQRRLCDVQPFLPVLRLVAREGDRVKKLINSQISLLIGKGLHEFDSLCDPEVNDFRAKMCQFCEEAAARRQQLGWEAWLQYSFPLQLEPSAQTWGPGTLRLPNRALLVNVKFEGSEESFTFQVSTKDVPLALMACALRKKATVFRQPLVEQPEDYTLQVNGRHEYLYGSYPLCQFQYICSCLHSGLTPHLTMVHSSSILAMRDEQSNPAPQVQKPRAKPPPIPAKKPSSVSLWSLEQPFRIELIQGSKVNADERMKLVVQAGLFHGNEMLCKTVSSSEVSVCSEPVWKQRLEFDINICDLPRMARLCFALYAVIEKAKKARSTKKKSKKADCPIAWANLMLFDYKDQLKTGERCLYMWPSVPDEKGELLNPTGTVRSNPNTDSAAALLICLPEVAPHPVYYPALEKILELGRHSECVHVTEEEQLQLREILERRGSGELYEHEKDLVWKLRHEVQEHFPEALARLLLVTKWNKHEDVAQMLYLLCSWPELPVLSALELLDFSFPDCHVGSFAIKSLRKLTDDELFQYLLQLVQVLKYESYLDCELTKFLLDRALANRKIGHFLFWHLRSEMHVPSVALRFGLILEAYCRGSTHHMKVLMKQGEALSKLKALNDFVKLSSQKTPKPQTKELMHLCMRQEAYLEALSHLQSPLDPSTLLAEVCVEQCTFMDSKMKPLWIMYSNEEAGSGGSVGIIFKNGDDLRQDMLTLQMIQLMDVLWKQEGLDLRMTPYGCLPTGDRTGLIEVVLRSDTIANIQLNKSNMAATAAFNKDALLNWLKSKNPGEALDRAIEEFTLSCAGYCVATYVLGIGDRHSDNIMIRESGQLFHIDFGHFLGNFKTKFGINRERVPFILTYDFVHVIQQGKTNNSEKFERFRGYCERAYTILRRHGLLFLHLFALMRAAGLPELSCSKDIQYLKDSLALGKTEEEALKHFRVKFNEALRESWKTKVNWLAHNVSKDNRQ
T4 sequence (P27986 whole entry partner): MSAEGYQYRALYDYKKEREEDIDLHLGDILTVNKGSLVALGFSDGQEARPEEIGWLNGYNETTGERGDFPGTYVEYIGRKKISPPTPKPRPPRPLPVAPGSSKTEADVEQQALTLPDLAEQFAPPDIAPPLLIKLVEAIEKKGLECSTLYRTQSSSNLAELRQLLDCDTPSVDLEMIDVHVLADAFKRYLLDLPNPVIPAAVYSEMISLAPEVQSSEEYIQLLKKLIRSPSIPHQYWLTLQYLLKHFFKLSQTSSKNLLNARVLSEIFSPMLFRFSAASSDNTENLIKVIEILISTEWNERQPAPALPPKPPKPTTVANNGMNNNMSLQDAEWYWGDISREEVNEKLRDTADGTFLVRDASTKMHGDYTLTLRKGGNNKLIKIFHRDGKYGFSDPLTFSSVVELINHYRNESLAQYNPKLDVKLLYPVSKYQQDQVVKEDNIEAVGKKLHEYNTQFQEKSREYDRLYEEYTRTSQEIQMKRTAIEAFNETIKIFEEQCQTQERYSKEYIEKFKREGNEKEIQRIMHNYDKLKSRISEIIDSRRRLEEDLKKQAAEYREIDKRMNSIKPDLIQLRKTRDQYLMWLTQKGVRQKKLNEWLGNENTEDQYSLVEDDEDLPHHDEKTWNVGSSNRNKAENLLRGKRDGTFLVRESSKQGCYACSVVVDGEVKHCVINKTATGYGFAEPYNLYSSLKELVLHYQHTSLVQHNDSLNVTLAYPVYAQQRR
Description: IC50 values of compounds against the PI3Kδ kinase were determined by an assay performed by Reaction Biology Corporation (Malvern, Pa.). Briefly, this assay was conducted in buffer (Tris-HCl 40 mM (pH7.5), Orthovanadate 3 mM, MgCl2 20 mM, DTT 2 mM, CHAPS 0.05%, DMSO 1%). PI3Kδ kinase was added to the reaction solution and mixed gently. The test compounds in 100% DMSO (at specific solutions) were mixed with the kinase reaction mixture to achieve the final compounds at pre-defined concentrations (e.g., range −0.5 nM to 100 μM) by Acoustic technology (Echo550; nanoliter range). After incubating for 10 min at room temp, ATP was added into the reaction mixture to initiate the reaction followed by a 30-min incubation at 30° C. After quenching the reaction with ADP-Glo reagent, the plates were incubated for 40 min. The Detection Mixture was added, and the plate was incubated for an additional 30 min. At the end of incubation, luminescence was measured. For data analysis, the luminescence was converted into μM ADP production based on ADP standard curves. The nonlinear regression to obtain the standard curve and IC50 values was performed using GraphPad Prism (GraphPad Software, Inc., San Diego, Calif.).

[6] = test system: DU4475 breast carcinoma cells; test: Cancer cell proliferation assay, single agent (cell viability); format: cell-based; conditions: Homo sapiens, DU-4475; Table 4; Rb negative; treatment 144 Hr with medium change at 72 Hr; Cell Titer-Glo or resazurin
Description: as §5, §6, §7

T1 sequence (P11802 whole entry): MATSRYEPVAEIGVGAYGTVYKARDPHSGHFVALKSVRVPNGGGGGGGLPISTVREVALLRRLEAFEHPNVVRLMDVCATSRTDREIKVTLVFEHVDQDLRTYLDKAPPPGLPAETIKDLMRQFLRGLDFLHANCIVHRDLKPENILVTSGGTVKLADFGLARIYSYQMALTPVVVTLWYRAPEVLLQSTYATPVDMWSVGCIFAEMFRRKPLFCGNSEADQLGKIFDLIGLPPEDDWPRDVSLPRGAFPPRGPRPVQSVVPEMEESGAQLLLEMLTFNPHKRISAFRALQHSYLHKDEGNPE
T1 sequence (P24385 whole entry partner): as the sequence (P24385 whole entry partner) above

Structure (SMILES) | IC50 [1] [nM] | IC50 [2] [nM] | IC50 [3] [nM] | IC50 [4] [nM] | IC50 [5] [nM] | IC50 [6] [nM]
N#Cc1cc2cnc(Nc3ccc4c(c3)C(=O)NC4)nc2n(C2CCCC2)c1=O [Compound No. 24, 8-cyclopentyl-7-oxo-2-((3-oxoisoindolin-5-yl)amino)-7,8-dihydropyrido[2,3-d]pyrimidine-6-carbonitrile] | > 200 | 35 | 5 | > 30000 |  | 
CCC(C)n1c(=O)c(C#N)cc2cnc(Nc3ccc4c(c3)CCNC4)nc21 (centres unmarked) [Compound No. 80, 8-(sec-butyl)-7-oxo-2-((1,2,3,4-tetrahydroisoquinolin-6-yl)amino)-7,8-dihydropyrido[2,3-d]pyrimidine-6-carbonitrile] | 128 | 22 |  | 498 | 295 | 870
N#Cc1cc2cnc(Nc3cccc(S(=O)(=O)N4CCOCC4)c3)nc2n(C2CCCC2)c1=O [Compound No. 20] | > 200 | > 200 | 99 | 1050 |  | 
CC1CN(c2ccc(Nc3ncc4cc(C#N)c(=O)n(C5CCCC5)c4n3)nc2)CCN1 (centres unmarked) [Compound No. 23, 8-cyclopentyl-2-((5-(3-methylpiperazin-1-yl)pyridin-2-yl)amino)-7-oxo-7,8-dihydropyrido[2,3-d]pyrimidine-6-carbonitrile] | 70.5 | 7 | 53 | 750 |  | 12400
N#Cc1cc2cnc(Nc3ccc4c(c3)NC(=O)C4)nc2n(C2CCCC2)c1=O [Compound No. 19, 8-cyclopentyl-7-oxo-2-((2-oxoindolin-6-yl)amino)-7,8-dihydropyrido[2,3-d]pyrimidine-6-carbonitrile] | 35 | 38 | < 1 | 2360 |  | 
N#Cc1cc2cnc(Nc3cnn(C4CCC(O)CC4)c3)nc2n(C2CCCC2)c1=O (centres unmarked) [Compound No. 51, 8-cyclopentyl-2-((1-(4-hydroxycyclohexyl)-1H-pyrazol-4-yl)amino)-7-oxo-7,8-dihydropyrido[2,3-d]pyrimidine-6-carbonitrile] | 91 | 42 | 1 | 570 |  | 
CC1CCN(c2ccc(Nc3ncc4cc(C#N)c(=O)n(C5CCCC5)c4n3)cc2)CC1 [Compound No. 25, 8-cyclopentyl-2-((4-(4-methylpiperidin-1-yl)phenyl)amino)-7-oxo-7,8-dihydropyrido[2,3-d]pyrimidine-6-carbonitrile] | > 200 | 38 | 13 | > 30000 |  | 
CN1CCN(C(=O)c2cccc(Nc3ncc4cc(C#N)c(=O)n(C5CCCC5)c4n3)c2)CC1 [Compound No. 16, 8-cyclopentyl-2-((3-(4-methylpiperazine-1-carbonyl)phenyl)amino)-7-oxo-7,8-dihydropyrido[2,3-d]pyrimidine-6-carbonitrile] | > 200 | > 200 | 7 | 6020 |  | 
CN1CCN(S(=O)(=O)c2cccc(Nc3ncc4cc(C#N)c(=O)n(C5CCCC5)c4n3)c2)CC1 [Compound No. 17, 8-cyclopentyl-2-((3-((4-methylpiperazin-1-yl)sulfonyl)phenyl)amino)-7-oxo-7,8-dihydropyrido[2,3-d]pyrimidine-6-carbonitrile] | > 200 | > 200 | 53 | 3230 |  | 
C[C@H]1CC[C@H](n2c(=O)c(C#N)cc3cnc(Nc4ccc5c(c4)C(=O)NCC5)nc32)CC1 [Compound No. 7, 8-((1r,4r)-4-methylcyclohexyl)-7-oxo-2-((1-oxo-1,2,3,4-tetrahydroisoquinolin-7-yl)amino)-7,8-dihydropyrido[2,3-d]pyrimidine-6-carbonitrile] |  |  | 8 |  |  | 
CN1CCn2nc(Nc3ncc4cc(C#N)c(=O)n(C5CCCC5)c4n3)cc2C1 [Compound No. 52, 8-cyclopentyl-2-((5-methyl-4,5,6,7-tetrahydropyrazolo[1,5-a]pyrazin-2-yl)amino)-7-oxo-7,8-dihydropyrido[2,3-d]pyrimidine-6-carbonitrile] | 39 | 13 | 6.5 | 6310 |  | 
CC1(C)CNCc2cc(Nc3ncc4cc(C#N)c(=O)n(C5CCCC5)c4n3)ccc21 [Compound No. 8, 8-cyclopentyl-2-((4,4-dimethyl-1,2,3,4-tetrahydroisoquinolin-7-yl)amino)-7-oxo-7,8-dihydropyrido[2,3-d]pyrimidine-6-carbonitrile] |  |  |  |  | 2460 | 
N#Cc1cc2cnc(Nc3ccc(N4CCNCC4)cc3F)nc2n(C2CCCC2)c1=O [Compound No. 26, 8-cyclopentyl-2-((2-fluoro-4-(piperazin-1-yl)phenyl)amino)-7-oxo-7,8-dihydropyrido[2,3-d]pyrimidine-6-carbonitrile] | 42 | 6 | 6 | 533 |  | 
N#Cc1cc2cnc(Nc3cc(F)c(N4CCNCC4)c(F)c3)nc2n(C2CCCC2)c1=O [Compound No. 27, 8-cyclopentyl-2-((3,5-difluoro-4-(piperazin-1-yl)phenyl)amino)-7-oxo-7,8-dihydropyrido[2,3-d]pyrimidine-6-carbonitrile] | 18 | 3.5 | 3.5 | 138 |  | 
N#Cc1cc2cnc(Nc3cccc(S(=O)(=O)N4CCC(O)CC4)c3)nc2n(C2CCCC2)c1=O [Compound No. 18, 8-cyclopentyl-2-((3-((4-hydroxypiperidin-1-yl)sulfonyl)phenyl)amino)-7-oxo-7,8-dihydropyrido[2,3-d]pyrimidine-6-carbonitrile] | > 200 | > 200 | 74 | 1420 |  | 
